A word on the CC50: it is the concentration that lowers cell viability or growth by half. The Papp A→B is the apparent permeability from the apical to the basolateral side of a cell layer. High values mean ready permeation, low ones poor permeation.

One data set concerns the target T1, BCRP (Homo sapiens, UniProt Q9UNQ0).
T1 construct: host or cells: MDCK cells with canine Pgp knocked out and BCRP knocked in (cPgp-KO-BCRP-KI)
T1 sequence (Q9UNQ0 1-655): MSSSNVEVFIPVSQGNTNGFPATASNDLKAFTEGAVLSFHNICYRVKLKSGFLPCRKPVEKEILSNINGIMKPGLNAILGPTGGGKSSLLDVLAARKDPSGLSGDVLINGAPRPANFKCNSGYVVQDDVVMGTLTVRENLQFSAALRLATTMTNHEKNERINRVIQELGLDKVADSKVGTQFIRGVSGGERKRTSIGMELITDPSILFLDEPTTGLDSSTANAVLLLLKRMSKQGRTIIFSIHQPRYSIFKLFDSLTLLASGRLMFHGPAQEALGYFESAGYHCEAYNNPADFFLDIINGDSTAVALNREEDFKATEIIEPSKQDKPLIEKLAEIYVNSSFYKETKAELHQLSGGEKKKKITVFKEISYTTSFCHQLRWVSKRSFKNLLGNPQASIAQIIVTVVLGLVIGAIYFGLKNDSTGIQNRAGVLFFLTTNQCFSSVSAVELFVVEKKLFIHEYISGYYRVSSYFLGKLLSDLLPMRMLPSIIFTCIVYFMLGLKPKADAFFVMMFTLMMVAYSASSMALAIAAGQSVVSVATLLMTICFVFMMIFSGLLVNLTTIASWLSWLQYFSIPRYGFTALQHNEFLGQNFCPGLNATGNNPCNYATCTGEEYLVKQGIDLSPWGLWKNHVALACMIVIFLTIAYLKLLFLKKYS
As to the kind of experiment: MDR1/BCRP assay: efflux ratio in cPgp-KO-BCRP-KI cells. The format is in vitro ADME. As to conditions: dog, efflux ratio Papp (B-to-A)/Papp (A-to-B), 2-hour time point, read-out: cPgp-KO-BCRP-KI (ER). As to the method: (§1) cPgp-KO-MDCK-WT, cPgp-KO-MDR1-KI, and cPgp-KO—BCRP—KI cells (all from Sigma) were cultured in Dulbecco's Modification of Eagle's Medium (DMEM) with 4.5 g/L glucose, sodium pyruvate, and GlutaMAX (Gibco) supplemented with 1% Pen/Strep and 10% fetal bovine serum. The cells were maintained in an incubator at 37° C., 90% humidity, and 5% CO2 until reaching confluence over 5 days in 96-well transwell plates. Experiments were conducted using an HBSS donor buffer (Invitrogen) containing 10 mM HEPES and 15 mM glucose, adjusted to pH 7.4. The receiver well contained HBSS buffer supplemented with 1% BSA, 10 mM HEPES, and 15 mM glucose, and the pH was adjusted to 7.4. TEER values were measured to assess membrane integrity after an initial equilibration with BSA-free transport buffer for 15 minutes. The experiment was started by adding dosing solutions containing test compounds at 1 μM. Cells were dosed on the apical (A) side or basolateral (B) side at 100 μl and 200 μl, respectively, to determine forward (A to B) and reverse (B to A) permeability. At the 2-hour time point, 50 μl samples were collected from the receiver compartment. Each compound was tested in 2 separate replicate wells for each condition. All samples were immediately collected into plates, and 50 μL of acetonitrile was added. Subsequently, 350 μl of 30:70 methanol: acetonitrile containing internal standard was added to precipitate proteins and stabilize the test compounds. To test for non-specific binding and compound instability, the total amount of the drug was quantified at the end of the experiment and compared to the material present in the original dosing solution as a percentage of the recovery. All samples were analyzed by LC-MS/MS using electrospray ionization.
(§2) The apparent permeability, Papp, and % recovery were calculated as follows: […]

Data set [1] concerns HCT116 MTAP-deleted cell lines. As to the kind of experiment: Cell viability assay (CellTitre-Glo), HCT116 MTAP-deleted. Type of data set: cell-based. The settings on record: for CC50: Homo sapiens, HCT-116, 168 h, HCT116 MTAP-deleted cells, 7 days of treatment, CTG luminescence, read-out: MTAP^del HCT116 CC50; for Selectivity: WT HCT116 CC50 versus MTAP^del HCT116 CC50. As to the method: (§3) Control compounds were analyzed in parallel each time for quality control.
(§4) In Brief, on Day-1, a serial dilution of stock compounds in DMSO was performed using BioMek liquid handlers and dispensed using Echo acoustic dispenser into 384 well plates. Both tool compounds and sample compounds were spotted in the same plate for a dose response of PRMT5 inhibitors. Compound plates were stored as frozen until the cells were ready for seeding.
(§5) On Day 0, 100 HCT WT or HCT116 MTAP-deleted cells were seeded in compound-containing 384 well plates (50 μl per well) in RPMI 1640 media supplemented with 10% heat inactivated fetal bovine serum, Glutamax and penicillin streptomycin using EL460 liquid dispenser 5 μl cassette (BioTek, part no. 7170011). After equilibrating the plate in room temperature, the cells were incubated for 7 days inside the sealed incubator set at 37° C. with […] and 5% CO2.
(§6) On Day 7, the viability of cells was measured using a CTG assay kit (CellTitre-Glo; Promega cat no. G7573). Shortly, 40 μl per well of luminescent cell viability assay reagent were dispensed using EL460 liquid dispenser 5 μl cassette. CTG luminescence signal was measured using an EnVision plate reader (PerkinElmer) in accordance with manufacturer's instruction. The CC50 values for each compound after 7 days of treatment were calculated using 4 parameter non-linear logistical curve fit.

Data set [2] can be described thus: MDR1/BCRP assay: permeability in cPgp-KO-MDCK-WT cells. Type of data set: in vitro ADME. As to conditions: dog, test compounds at 1 μM, 2-hour time point, pH 7.4. As to the method:
as §1, §2

Another data set addresses T2, MDR1 (Homo sapiens, UniProt P08183).
T2 construct: host or cells: MDCK cells with canine Pgp knocked out and MDR1 knocked in (cPgp-KO-MDR1-KI)
As to the kind of experiment: MDR1/BCRP assay: efflux ratio in cPgp-KO-MDR1-KI cells. The settings on record: dog, MDCK-MDR1, efflux ratio Papp (B-to-A)/Papp (A-to-B), 2-hour time point, read-out: cPgp-KO-MDR1-KI (ER). Type of data set: in vitro ADME. As to the method: as §1, §2

Data set [3] in a line: Cell viability assay (CellTitre-Glo), HCT116 WT. Type of data set: cell-based. As to conditions: human; HCT116 WT cells, 7 days of treatment, CTG luminescence. As to the method: as §3, §4, §5, §6

T2 sequence (P08183 whole entry): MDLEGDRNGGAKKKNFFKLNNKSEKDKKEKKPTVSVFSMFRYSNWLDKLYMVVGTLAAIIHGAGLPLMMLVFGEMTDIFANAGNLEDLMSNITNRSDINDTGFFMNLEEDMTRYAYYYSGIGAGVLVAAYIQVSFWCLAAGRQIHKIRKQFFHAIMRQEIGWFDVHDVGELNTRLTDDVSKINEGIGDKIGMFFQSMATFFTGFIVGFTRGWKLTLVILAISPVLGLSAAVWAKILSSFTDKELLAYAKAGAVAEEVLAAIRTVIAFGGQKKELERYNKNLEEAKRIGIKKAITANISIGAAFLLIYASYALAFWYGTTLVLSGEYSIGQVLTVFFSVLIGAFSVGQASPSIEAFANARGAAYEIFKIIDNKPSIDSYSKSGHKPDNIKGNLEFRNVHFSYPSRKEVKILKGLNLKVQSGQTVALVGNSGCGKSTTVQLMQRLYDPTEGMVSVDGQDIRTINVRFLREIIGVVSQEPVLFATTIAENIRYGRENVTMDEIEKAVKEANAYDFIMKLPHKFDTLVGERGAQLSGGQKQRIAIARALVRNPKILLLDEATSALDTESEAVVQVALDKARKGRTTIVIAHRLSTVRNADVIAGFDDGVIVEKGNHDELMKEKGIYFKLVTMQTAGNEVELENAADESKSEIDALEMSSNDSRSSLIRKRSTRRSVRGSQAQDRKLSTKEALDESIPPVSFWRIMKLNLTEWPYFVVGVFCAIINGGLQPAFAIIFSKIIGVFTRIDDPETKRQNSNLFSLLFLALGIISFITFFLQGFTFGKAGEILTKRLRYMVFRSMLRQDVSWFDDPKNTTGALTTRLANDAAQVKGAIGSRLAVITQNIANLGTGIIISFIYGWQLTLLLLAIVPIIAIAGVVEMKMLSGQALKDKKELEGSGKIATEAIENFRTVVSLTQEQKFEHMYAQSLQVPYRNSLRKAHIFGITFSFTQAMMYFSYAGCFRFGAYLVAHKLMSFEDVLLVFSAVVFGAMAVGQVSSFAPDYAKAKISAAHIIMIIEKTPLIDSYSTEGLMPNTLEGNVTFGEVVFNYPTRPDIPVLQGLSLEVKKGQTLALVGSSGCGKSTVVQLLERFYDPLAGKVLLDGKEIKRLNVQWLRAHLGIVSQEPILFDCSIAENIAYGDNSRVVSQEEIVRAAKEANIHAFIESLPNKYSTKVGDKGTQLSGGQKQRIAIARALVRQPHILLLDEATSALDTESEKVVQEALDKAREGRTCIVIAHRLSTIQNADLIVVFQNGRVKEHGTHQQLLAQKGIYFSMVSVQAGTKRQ

With `Cn1ncc2c(NC(=O)C(=O)N3CCC[C@@H]4Oc5cc(OC(F)F)c(F)cc5[C@@H]43)cnc(N)c21` (relative stereo) [Example Ca-9, cis-N-(7-amino-1-methyl-1H-pyrazolo[3,4-c]pyridin-4-yl)-2-(7-(difluoromethoxy)-8-fluoro-3,4,4a,9b-tetrahydrobenzofuro[3,2-b]pyridin-1(2H)-yl)-2-oxoacetamide], the results for the efflux ratio at 2 h, 1 μM on BCRP and at MDR1 were 1.6 and 1.8, respectively. Besides, the CC50 in data set [1] was found to be 0.034 µM. Also, the Selectivity in data set [1] is 119. Besides, the Papp A→B at 2 h, 1 µM in data set [2] is 153 nm/s. For the same molecule, in data set [3], it took 4.1 µM to reach half-maximal cytotoxicity (CC50 at 7 days).
`Cn1ncc2c(NC(=O)C(=O)N3CCC[C@@H]4Oc5cc(C(F)(F)F)cc(F)c5[C@@H]43)cnc(N)c21` [Example Ca-1, N-(7-amino-1-methyl-1H-pyrazolo[3,4-c]pyridin-4-yl)-2-((4aS,9bS)-9-fluoro-7-(trifluoromethyl)-3,4,4a,9b-tetrahydrobenzofuro[3,2-b]pyridin-1(2H)-yl)-2-oxoacetamide]: the efflux ratio at 2 h, 1 μM on BCRP turned out to be 0.7. In data set [1], the CC50 is 0.01 µM and the Selectivity turned out to be 103. The Papp A→B at 2 h, 1 µM in data set [2] is 120 nm/s. For the same molecule, the efflux ratio at 2 h, 1 μM on MDR1 was 1. This molecule also registered a CC50 at 7 days in data set [3] of 1.03 µM.
Turning to `Cn1ncc2c(NC(=O)C(=O)N3CCC[C@@H]4Oc5cc(C(F)(F)F)ccc5[C@@H]43)cnc(N)c21` [Example Ca-2, N-(7-amino-1-methyl-11H-pyrazolo[3,4-c]pyridin-4-yl)-2-oxo-2-((4aS,9bS)-7-(trifluoromethyl)-3,4,4a,9b-tetrahydrobenzofuro[3,2-b]pyridin-1(2H)-yl)acetamide], the figures for the efflux ratio at 2 h, 1 μM on BCRP and at MDR1 were 0.7 and 0.8, respectively. In addition, the CC50 in data set [1] came to 0.012 µM. This molecule also yielded a Selectivity in data set [1] of 78. Moreover, the Papp A→B at 2 h, 1 µM in data set [2] was 122 nm/s. Moreover, the CC50 at 7 days in data set [3] came out at 0.935 µM.
As to `C[C@H]1CN(C(=O)C(=O)Nc2cnc(N)c3c2cnn3C)[C@H]2c3ccc(C(F)(F)F)cc3C[C@H]2O1` [Example Ca-3, N-(7-amino-1-methyl-11H-pyrazolo[3,4-c]pyridin-4-yl)-2-((2S,4aS,9aR)-2-methyl-7-(trifluoromethyl)-2,3,9,9a-tetrahydroindeno[2,1-b][1,4]oxazin-4(4aH)-yl)-2-oxoacetamide], the efflux ratio at 2 h, 1 μM at BCRP worked out at 0.7. Also, in data set [1], the CC50 was 0.038 µM and the Selectivity was 77. This molecule displayed a Papp A→B at 2 h, 1 µM in data set [2] of 126 nm/s. Moreover, the efflux ratio at 2 h, 1 μM at MDR1 amounted to 1.1. Also, in data set [3], half-maximal cytotoxicity (CC50 at 7 days) was put at 2.94 µM.
Turning to `Cn1ncc2c(NC(=O)C(=O)N3CC[C@H]4C[C@@H]3c3ccc(OC(F)(F)F)cc3O4)cnc(N)c21` [Example Ca-4, N-(7-amino-1-methyl-1H-pyrazolo[3,4-c]pyridin-4-yl)-2-oxo-2-((2S,6R)-9-(trifluoromethoxy)-3,4-dihydro-2H-2,6-methanobenzo[b][1,5]oxazocin-5(6H)-yl)acetamide], the efflux ratio at 2 h, 1 μM on BCRP came out at 0.6. In data set [1], the CC50 came to 0.031 µM and the Selectivity was 102. In data set [2], this molecule showed a Papp A→B at 2 h, 1 µM of 260 nm/s. Also, the efflux ratio at 2 h, 1 μM on MDR1 stood at 0.9. Further, the CC50 at 7 days in data set [3] is 3.2 µM.
Regarding `Cn1ncc2c(NC(=O)C(=O)N3CC4(CC4)C[C@@H]4Oc5cc(C(F)(F)F)ccc5[C@@H]43)cnc(N)c21` [Example Ca-5, N-(7-amino-1-methyl-1H-pyrazolo[3,4-c]pyridin-4-yl)-2-oxo-2-((4aS,9bS)-7-(trifluoromethyl)-4a,9b-dihydro-2H-spiro[benzofuro[3,2-b]pyridine-3,1′-cyclopropan]-1(4H)-yl)acetamide], the efflux ratio at 2 h, 1 μM at BCRP is 0.44. In data set [1], the CC50 worked out at 0.008 µM and the Selectivity worked out at 73. In data set [2], this molecule returned a Papp A→B at 2 h, 1 µM of 116 nm/s. The efflux ratio at 2 h, 1 μM on MDR1 worked out at 0.99. This molecule also registered a half-maximal cytotoxic concentration (CC50) at 7 days in data set [3] of 0.589 µM.
Turning to `Cn1ncc2c(NC(=O)C(=O)N3CCC[C@@H]4Oc5cc(Cl)ccc5[C@@H]43)cnc(N)c21` [Example Ca-7, N-(7-amino-1-methyl-1H-pyrazolo[3,4-c]pyridin-4-yl)-2-((4aS,9bS)-7-chloro-3,4,4a,9b-tetrahydrobenzofuro[3,2-b]pyridin-1(2H)-yl)-2-oxoacetamide], the efflux ratio at 2 h, 1 μM on BCRP was found to be 1.1. Further, in data set [1], the CC50 was found to be 0.016 µM and the Selectivity amounted to 108. This molecule had a Papp A→B at 2 h, 1 µM in data set [2] of 214 nm/s. The molecule also gave a CC50 at 7 days in data set [3] of 1.7 µM.
Turning to `[2H]C([2H])([2H])n1ncc2c(NC(=O)C(=O)N3CCC[C@@H]4Oc5cc(C(F)(F)F)cc(F)c5[C@@H]43)cnc(N)c21` [Example Cb-1, N-(7-amino-1-(methyl-d3)-1H-pyrazolo[3,4-c]pyridin-4-yl)-2-((4aS,9bS)-9-fluoro-7-(trifluoromethyl)-3,4,4a,9b-tetrahydrobenzofuro[3,2-b]pyridin-1(2H)-yl)-2-oxoacetamide], in data set [1], the half-maximal cytotoxic concentration (CC50) was determined as 0.012 µM and the Selectivity is 99. Moreover, the CC50 at 7 days in data set [3] amounted to 1.24 µM.
In the same order, the values of `Nc1ncc(NC(=O)C(=O)N2CCC[C@@H]3Oc4cc(C(F)(F)F)ccc4[C@@H]32)c2c1COC2` [Example Cc-1, N-(4-amino-1,3-dihydrofuro[3,4-c]pyridin-7-yl)-2-oxo-2-((4aS,9bS)-7-(trifluoromethyl)-3,4,4a,9b-tetrahydrobenzofuro[3,2-b]pyridin-1(2H)-yl)acetamide] are 0.05 µM, 38 and 1.94 µM.
For the molecule `Nc1ncc(NC(=O)C(=O)N2CCC[C@@H]3Oc4cc(C(F)(F)F)cc(F)c4[C@@H]32)c2c1COC2` [Example Cc-2, N-(4-amino-1,3-dihydrofuro[3,4-c]pyridin-7-yl)-2-((4aS,9bS)-9-fluoro-7-(trifluoromethyl)-3,4,4a,9b-tetrahydrobenzofuro[3,2-b]pyridin-1(2H)-yl)-2-oxoacetamide], in data set [1], the CC50 was 0.051 µM and the Selectivity is given as 37. The molecule also showed a CC50 at 7 days in data set [3] of 1.91 µM.

The values are drawn from patent US20250376484A1, “PRMT5 INHIBITORS AND USES THEREOF” (Gilead Sciences, Inc., priority 2024, published 2025).
